Results: US10010560B2, “Small molecule HSP70 inhibitors” (THE TRUSTEES OF THE UNIVERSITY OF PENNSYLVANIA, priority 2014, dated 2018)

Key:
Assay type in all cases: cell-based
E. coli DH5α = test: Growth of E. coli DH5α at 43° C.
Experimental: FIGS. 2A-2D illustrate the cytotoxicity of PET-16 to human tumor cells and its inhibition on E. coli growth. FIG. 2A is a line graph with data obtained from MTT assays of human melanoma cell lines treated with the indicated concentrations of PES or PET-16 for 72 h. The corresponding cell survival is normalized to vehicle (DMSO) treatment. Average and standard deviation (s.d.) from three independent experiments are shown. FIG. 2B are bar graphs of human melanoma (A875) cells and nontransformed human (IMR90) fibroblasts that were treated with DMSO, 10 μM PES or 10 μM PET-16 for 24 h. […] FIG. 2C is a line graph illustrating the growth of E. coli DH5α treated with different concentrations of PES or PET-16 for 6 h at 43° C. Error bars represent the s.d. of four independent experiments. FIG. 2D is a bar graph illustrating the growth of E. coli DH5α treated with DMSO, 30 μM PET-16 or 30 μM TPP for 6 h at 43° C. Error bars represent the s.d. of four independent experiments.
FIGS. 9A-9H illustrate that PET-16 binds directly to ADP-bound HSP70 and is cytotoxic to human tumor cells. FIGS. 9A-9C are ITC assays of the interaction of PET-3C with purified human HSP70-ADP (A), human HSP70-ATP (B) and DnaK-ADP (C) proteins. The data are representative of three independent experiments. FIG. 9D is a line graph of an MTT assay of the human melanoma cell line 1205 Lu treated with the indicated concentrations of PET-16 (---) or PET-3C (-) for 72 h. The corresponding cell survival is normalized to the DMSO-treatment. Average and standard deviation (s.d.) from three independent experiments are shown. FIG. 9E is a line graph illustrating the growth of E. coli DH5α strain treated with different concentrations of PET-16 (black) or PET-3C (gray) for 6 h at 43° C. Error bars represent the s.d. of four independent experiments. FIG. 9F is a bar graph illustrating the growth of E. coli DH5α treated with DMSO, 30 μM PET-16, 30 μM PET-3C or 30 μM TPP for 6 h at 43° C. Error bars represent the s.d. of four independent experiments. […]

STAT3 and STAT1 = test: IL-6 induced STAT3 and STAT1 phosphorylation in melanoma cell lines; conditions: cells pre-treated with compound
Source text: (§1) FIGS. 4A-4L illustrate that PET-16 impairs proteostasis. […] There is a general absence of obvious nuclei in PET-16 treated tumor cells. […] FIGS. 4D and 4E are gels of whole-cell extracts (WCE) prepared from human melanoma A875 (D) or 451 Lu (E) cells treated with DMSO, PES or PET-16 that were immunoprecipitated using an anti-HSP70 antibody. The excised band of about 70 kDa shown in the Coomassie gel is HSP70, as confirmed by liquid chromatography—tandem mass spectrometry analysis. FIGS. 4F-4I are western blots of cell lines were treated with DMSO, PES or PET-16 for 24 h and immunoblotted for the indicated proteins. FIG. 4J are western blots of indicated melanomas pretreated with DMSO, PES or PET-16, followed by treatment with IL-6. Cell extracts were immunoblotted for the proteins indicated. Inhibition of IL-6 induced STAT3 and STAT1 phosphorylation by PET-16. FIG. 4K is a western blot analysis indicating altered processing of cathepsin L from the larger precursor form to the smaller mature form in the indicated cells following PET-16 treatment for 24 h. FIG. 4L is a western blot of the human melanoma 451 Lu cells treated with DMSO, PES or PET-16 for 24 h. Cells were harvested in 1% NP40-containing lysis buffer, fractionated into detergent-soluble and detergent-insoluble preparations, and assayed by western blot for ubiquitin. […]

cathepsin L = test: Western blot of cathepsin L processing; conditions: 24 h treatment
Source text: as §1

C(#C[P+](c1ccccc1)(c1ccccc1)c1ccccc1)c1ccccc1.[Br-] [PET-16, triphenyl(phenylethynyl)phosphonium bromide]
E. coli phenotype (E. coli DH5α): cell filamentation and reduced viability | effect on growth of E. coli (E. coli DH5α; 6 h at 43° C.): impaired bacterial growth | IL-6 mediated phosphorylation of STAT3 and STAT1 (STAT3 and STAT1): inhibited | cathepsin L processing (cathepsin L): accumulation of the precursor procathepsin L and a markedly reduced abundance of the smaller, mature form
